Calls of active or inactive are those of the source. The calls are words filed in the database; no cut-off is given here.
Legend:
CT26 [1] = experiment: Antitumor activity against mouse CT26 cells implanted in BALB/c mouse assessed as increase in cleaved PARP level at 140 mg/kg, po administered for 3 days; assay type: functional, organism-based; conditions: time 3.0 day
[2] = Toxicity in BALB/c mouse assessed as colon damage at 20 mg/kg, po measured after 29 days by H and E staining based analysis; assay type: organism-based; conditions: in vivo, 696 h, time 29 day
Panc02 = experiment: Antitumor activity against mouse Panc02 cells xenografted in C57BL/6 mouse assessed as tumor growth inhibition at 20 to 40 mg/kg, ip measured for 21 to 28 days; assay type: functional, organism-based; conditions: dose 20-40 mg/kg, time 21-28 day
[3] = Toxicity in BALB/c mouse assessed as stomach damage at 20 mg/kg, po measured after 29 days by H and E staining based analysis; assay type: organism-based; conditions: in vivo, 696 h, time 29 day
[4] = Toxicity in BALB/c mouse assessed as heart damage at 20 mg/kg, po measured after 29 days by H and E staining based analysis; assay type: organism-based; conditions: in vivo, 696 h, time 29 day
[5] = Drug concentration in mouse liver at 15 mg/kg, iv measured at 7 hrs; assay type: ADME, organism-based; conditions: read-out: Ct
[6] = Drug concentration in mouse plasma at 30 mg/kg, po measured at 7 hrs; assay type: ADME, organism-based
[7] = Drug concentration in mouse kidney at 30 mg/kg, po measured at 24 hrs; assay type: ADME, organism-based; conditions: read-out: Ct
[8] = Drug concentration in mouse plasma at 15 mg/kg, iv measured at 24 hrs; assay type: ADME, organism-based
[9] = Toxicity in BALB/c mouse assessed as spleen damage at 20 mg/kg, po measured after 29 days by H and E staining based analysis; assay type: organism-based; conditions: in vivo, 696 h, time 29 day
HCT-116 = experiment: Induction of apoptosis in human HCT-116 cells assessed as upregulation of cleaved PARP level measured for 48 hrs by Western blot analysis; assay type: functional, cell-based; conditions: dose 10.0 µM
CT26 [10] = experiment: Antitumor activity against mouse CT26 cells implanted in BALB/c mouse assessed as increase in cleaved PARP level at 50 mg/kg, po measured after 14 days; assay type: functional, organism-based; conditions: time 14.0 day
CT26 [11] = experiment: Antitumor activity against mouse CT26 cells implanted in BALB/c mouse assessed as increase in animal survival at 100 mg/kg, po measured after 14 days; assay type: functional, organism-based; conditions: time 14.0 day
[12] = Drug concentration in mouse heart at 30 mg/kg, po measured at 24 hrs; assay type: ADME, organism-based; conditions: read-out: Ct
[13] = Drug concentration in mouse heart at 30 mg/kg, po measured at 7 hrs; assay type: ADME, organism-based; conditions: read-out: Ct
[14] = Drug concentration in mouse liver at 15 mg/kg, iv measured at 24 hrs; assay type: ADME, organism-based; conditions: read-out: Ct
CT26 [15] = experiment: Antitumor activity against mouse CT26 cells implanted in BALB/c mouse assessed as increase in cleaved caspase-3 level at 50 mg/kg, po measured after 14 days; assay type: functional, organism-based; conditions: time 14.0 day
KPC2 = experiment: Antitumor activity against mouse KPC2 cells implanted in FVB mouse assessed as reduction in tumor burden at 25 mg/kg, po measured after 14 days; assay type: functional, organism-based; conditions: time 14.0 day
[16] = Toxicity in BALB/c mouse assessed as pancrease damage at 20 mg/kg, po measured after 29 days by H and E staining based analysis; assay type: organism-based; conditions: in vivo, 696 h, time 29 day
[17] = Drug concentration in mouse kidney at 15 mg/kg, iv measured at 7 hrs; assay type: ADME, organism-based; conditions: read-out: Ct
[18] = Drug concentration in mouse liver at 30 mg/kg, po measured at 7 hrs; assay type: ADME, organism-based; conditions: read-out: Ct
[19] = Toxicity in BALB/c mouse assessed as lung damage at 20 mg/kg, po measured after 29 days by H and E staining based analysis; assay type: organism-based; conditions: in vivo, 696 h, time 29 day
CT26 [20] = experiment: Antitumor activity against mouse CT26 cells implanted in BALB/c mouse assessed as increase in cleaved PARP level at 140 mg/kg, iv administered for 3 days; assay type: functional, organism-based; conditions: time 3.0 day
[21] = Toxicity in BALB/c mouse assessed as kidney damage at 20 mg/kg, po measured after 29 days by H and E staining based analysis; assay type: organism-based; conditions: in vivo, 696 h, time 29 day
[22] = Drug concentration in mouse heart at 15 mg/kg, iv measured at 7 hrs; assay type: ADME, organism-based; conditions: read-out: Ct
CT26 [23] = experiment: Antitumor activity against mouse CT26 cells implanted in BALB/c mouse assessed as inhibition of tumor growth at 100 mg/kg, po measured after 14 days; assay type: functional, organism-based; conditions: time 14.0 day
[24] = Drug concentration in mouse kidney at 30 mg/kg, po measured at 7 hrs; assay type: ADME, organism-based; conditions: read-out: Ct

Q: For N[C@@H]1[C@H]2CN(c3cnc(C(=O)Nc4cc(F)cc5cccnc45)cn3)C[C@@H]12, which Activity (CT26 [1]) is on record?
A: The Activity was “Active”.

Q: And the Activity [2]?
A: Its Activity is “Non-toxic”.

Q: What about the TGI (Panc02) of the same compound?
A: Its TGI is “Active”.

Q: And the Activity [3]?
A: The Activity was “Non-toxic”.

Q: And the Activity [4]?
A: The Activity was “Non-toxic”.

Q: And the concentration at 7 h [5]?
A: Its concentration at 7 h is 2140 ng/g.

Q: And the concentration at 7 h [6]?
A: Its concentration at 7 h is 293 ng/mL.

Q: And the concentration at 24 h [7]?
A: Its concentration at 24 h is 137 ng/g.

Q: What about the concentration at 24 h [8] of the same compound?
A: The concentration at 24 h was 7 ng/mL.

Q: What about the Activity [9] of the same compound?
A: Its Activity is “Non-toxic”.

Q: What about the Activity (HCT-116) of the same compound?
A: The Activity was “Dose-dependent-effect”.

Q: What about the Activity (CT26 [10]) of the same compound?
A: The Activity was “Active”.

Q: And the Activity (CT26 [11])?
A: The Activity was “Active”.

Q: And the concentration at 24 h [12]?
A: Its concentration at 24 h is 57 ng/g.

Q: And the concentration at 7 h [13]?
A: Its concentration at 7 h is 1840 ng/g.

Q: And the concentration at 24 h [14]?
A: Its concentration at 24 h is 48 ng/g.

Q: And the Activity (CT26 [15])?
A: The Activity was “Active”.

Q: What about the Activity (KPC2) of the same compound?
A: The Activity was “Active”.

Q: And the Activity [16]?
A: The Activity was “Non-toxic”.

Q: And the concentration at 7 h [17]?
A: The concentration at 7 h was 2690 ng/g.

Q: And the concentration at 7 h [18]?
A: The concentration at 7 h was 5530 ng/g.

Q: And the Activity [19]?
A: Its Activity is “Non-toxic”.

Q: And the Activity (CT26 [20])?
A: The Activity was “Active”.

Q: What about the Activity [21] of the same compound?
A: Its Activity is “Non-toxic”.

Q: And the concentration at 7 h [22]?
A: Its concentration at 7 h is 882 ng/g.

Q: What about the TGI (CT26 [23]) of the same compound?
A: Its TGI is “Active”.

Q: What about the concentration at 7 h [24] of the same compound?
A: Its concentration at 7 h is 6100 ng/g.

Reference: ChEMBL document CHEMBL6109128, “Copper-KRAS-COX2 Axis: A Therapeutic Vulnerability in Pancreatic Cancer” (J Med Chem, 2025)
